Assay [1] deals with T1, PDE V (cGMP-specific PDE) (Canis lupus familiaris, UniProt O77746).
T1 construct: PDE V (cGMP-specific PDE) was purified from canine tracheal smooth muscle; from tissue; host or cells: canine tracheal smooth muscle
As to the kind of experiment: inhibitory activity on PDE V derived from canine tracheal smooth muscle. Type of assay: biochemical. Particulars: 1 nM compound; substrate 1.0 μM [3H]cGMP; pH 7.2; 30° C., 10 to 30 minutes; inhibitor dissolved in 1.7% DMSO; read-out: PDE V Inhibitory activity, inhibition rate (%). Here is the method: The inhibitory activity on PDE derived from canine tracheal smooth muscle
According to the method of Torphy et al. [Mol. Pharmacol., 37, 206 (1990)], PDE V (cGMP-specific PDE) was purified from canine tracheal smooth muscle.
The activity was measured based on the method of Kincaid et al. [J. D. Corbin et al., Methods Enzymol., 159, 457 (1988), Academic Press, New York]. The measurement was carried out using, as a substrate, 1.0 μM [^3 H]cGMP, and the reaction was carried out in a buffer having the following composition:
50 mM N,N-bis(2-hydroxyethyl)-2-aminoethanesulfonic acid (pH 7.2), 1 mM MgCl2, 0.1 mg/ml soybean trypsin inhibitor
The reaction was started by addition of an enzyme and stopped by addition of hydrochloric acid after 10 to 30 minutes at 30° C. Thereafter, sodium hydroxide was added for neutralization and 5'-GMP was converted into guanosine using 5'-nucleotidase. The reaction solution was subjected to DEAE-Sephadex A-25 column. [^3 H]Guanosine was eluted with distilled water and the radioactivity was measured with a liquid scintillation counter. The inhibitor was dissolved in 1.7% DMSO.

For a further assay, the system named is rats. As to the kind of experiment: hypotensive effect in anesthetized rats (duodenal administration). The settings on record: rat, i.d., within 30 minutes, average of N = 2. Format: in vivo, male Sprague-Dawley rat. The method, then:
The hypotensive effect in rats
After a male Sprague-Dawley rat anesthetized with urethane was fixed in the supine position, a cannula was inserted into trachea and the rat was artificially ventilated under the conditions of a tidal volume of […] and 60 breathes/min. The carotid artery and the duodenum were cannulated for measuring blood pressure and administering a drug, respectively. The drug was dissolved in distilled water and administered duodenally using the above cannula. Mean blood pressure (mBP) until 30 minutes after the drug-administration was measured and the maximum loweing rate (%) from the value before the drug-administration (100%) was determined. The average value of 2 samples was calculated in each dose. No change of mBP was observed during 30 minutes in case of administering distilled water.

Where a name gives a salt, the structure may show the parent alone.

By inhibition is commonly meant the change of the read-out against control, counted positive when it falls.

`CCn1c(=S)[nH]c2cc3c(NCc4ccccc4OCCN4CCN(C)CC4)ncnc3cc21` [Compound 32, 3-Ethyl-8-{2-[2-(4-methylpiperazin-1-yl)ethoxy]benzylamino}-2,3-dihydro-1H-imidazo[4,5-g]quinazoline-2-thione.3 hydrochloride]: the inhibition at 0.001 µM in assay [1] is 79%. On to `CCn1c(=S)[nH]c2cc3c(NCc4ccccc4CN4CCOCC4)ncnc3cc21` [Compound 4, 3-Ethyl-8-[2-(morpholinomethyl)benzylamino]-2,3-dihydro-1H-imidazo[4,5-g]quinazoline-2-thione.2 hydrochloride], for which, in assay [1], the inhibition at 0.001 µM was 97%. The “Hypotensive activity, Maximum lowering rate (%) of mean blood pressure (mBP)” value in the assay with rats (0.1 mg/kg) is 9.0%; in the assay on rats (1 mg/kg) it was 21.5%; in the assay with rats (10 mg/kg), 25.1%. As for `CCn1c(=S)[nH]c2cc3c(NCc4ccc(CN5CCCCC5)cc4)ncnc3cc21` [Compound 15, 3-Ethyl-8-[4-(piperidinomethyl)benzylamino]-2,3-dihydro-1H-imidazo[4,5-g]quinazoline-2-thione.2 hydrochloride], in assay [1], the inhibition at 0.001 µM worked out at 63%.

For `CCn1c(=S)[nH]c2cc3c(NCc4ccccc4OCCN4CCOCC4)ncnc3cc21` [Compound 29, 3-Ethyl-8-[2-(2-morpholinoethoxy)benzylamino]-2,3-dihydro-1H-imidazo[4,5-g]quinazoline-2-thione.2 hydrochloride], the inhibition at 0.001 µM in assay [1] was found to be 91%. The same measure, in the same setting: the value for `CCn1c(=O)[nH]c2cc3c(NCc4ccccc4CN4CCOCC4)ncnc3cc21` [Compound 1, 3-Ethyl-8-[2-(morpholinomethyl)benzylamino]-2,3-dihydro-1H-imidazo[4,5-g]quinazolin-2-one.2 hydrochloride] was 74%; that for `CCOC(=O)C1CCN(Cc2ccccc2CNc2ncnc3cc4c(cc23)[nH]c(=O)n4CC)CC1` [Compound 76, 3-Ethyl-8-{2-[4-(ethoxycarbonyl)piperidin-1-ylmethyl]benzylamino}-2,3-dihydro-1H-imidazo[4,5-g]quinazolin-2-one.2 hydrochloride] was 88%; that for `CCn1c(=S)[nH]c2cc3c(NCc4ccc(OCCN5CCOCC5)cc4)ncnc3cc21` [Compound 42, 3-Ethyl-8-[4-(2-morpholinoethoxy)benzylamino]-2,3-dihydro-1H-imidazo[4,5-g]quinazoline-2-thione.2 hydrochloride] was 89%. With `CCOC(=O)C1CCN(Cc2ccccc2CNc2ncnc3cc4c(cc23)[nH]c(=S)n4CC)CC1` [Compound 75, 3-Ethyl-8-{2-[4-(ethoxycarbonyl)piperidin-1-ylmethyl]benzylamino}-2,3-dihydro-1H-imidazo[4,5-g]quinazoline-2-thione.2 hydrochloride], the inhibition at 0.001 µM in assay [1] turned out to be 92%.

For `CCn1c(=O)[nH]c2cc3c(NCc4ccccc4OCCN4CCOCC4)ncnc3cc21` [Compound 21, 3-Ethyl-8-[2-(2-morpholinoethoxy)benzylamino]-2,3-dihydro-1H-imidazo[4,5-g]quinazolin-2-one.2 hydrochloride], the inhibition at 0.001 µM in assay [1] turned out to be 29%. With `CCn1c(=S)[nH]c2cc3c(NCc4cccc(OCCCN5CCOCC5)c4)ncnc3cc21` [Compound 79, 3-Ethyl-8-[3-(3-morpholinopropoxy)benzylamino]-2,3-dihydro-1H-imidazo[4,5-g]quinazoline-2-thione.2 hydrochloride], the inhibition at 0.001 µM in assay [1] came out at 95%.

On to `CCN(CC)CCCOc1cccc(CNc2ncnc3cc4c(cc23)[nH]c(=S)n4CC)c1` [Compound 80, 8-{3-[3-(Diethylamino)propoxy]benzylamino}-3-ethyl-2,3-dihydro-1H-imidazo[4,5-g]quinazoline-2-thione.2 hydrochloride], for which, in assay [1], the inhibition at 0.001 µM came to 92%. Regarding `CCn1c(=S)[nH]c2cc3c(NCc4ccccc4CN4CC=CCC4)ncnc3cc21` [Compound 71, 3-Ethyl-8-[2-(1,2,3,6-tetrahydropyridin-1-ylmethyl)benzylamino]-2,3-dihydro-1H-imidazo[4,5-g]quinazoline-2-thione.2 hydrochloride], the inhibition at 0.001 µM in assay [1] was 97%. The results for the “Hypotensive activity, Maximum lowering rate (%) of mean blood pressure (mBP)” value in the assay with rats (0.1 mg/kg), in the assay with rats (1 mg/kg) and in the assay with rats (10 mg/kg) were 16.1%, 22.8% and 23.2%, respectively.

Values taken from patent US5698560A, “Imidazoquinazoline derivatives” (Kyowa Hakko Kogyo Co., Ltd., priority 1995, dated 1997).
